The text below walks through data of patent publication US20240247029A1, “INTERLEUKIN-1 RECEPTOR MODULATORS AND USES THEREOF” (VALORISATION HSJ, LIMITED PARTNERSHIP, priority 2020, published 2024).

In one experiment the test system is timed-pregnant CD-1 mice. Description: LPS-induced preterm birth model in mice. The format is in vivo, mouse. Conditions: 2 mg/kg/day subcutaneous, LPS 10 μg intraperitoneal on G16.5; delivery before G18.5; LPS alone ˜80%. As to the method:
FIG. 6 is a graph showing the effects of peptides 1 and 2 on prevention of PTB. In brief, pregnant dams on day 16.5 of gestation (G16.5) were subcutaneously pretreated with peptides 1 and 2 (2 mg/kg/day subcutaneous injections) or vehicle, followed by LPS (10 μg intraperitoneal injection), and observed for delivery of pups. A dam was considered as delivering preterm if at least one pup was delivered before G18.5. n=4-5 dams per treatment group.
Timed-pregnant CD-1 mice at 16.5 days of gestation (G16.5) were anesthetized with 2% isoflurane and received an intraperitoneal injection of lipopolysaccharide (LPS, n=4 per group, a single dose of 10 ug) (Nadeau-Vallée et al., 2015; Kakinuma et al., 1997). A dosage of 2 mg/kg/day of peptides 1 and 2 or vehicle was respectively injected subcutaneously in the neck, every 12h until delivery. On G16.5, a dose of 1 mg/kg was injected 30 min before stimulation with LPS (to allow distribution of drugs to target tissues) and 1 mg/kg was injected 12h after stimulation (n=4 each treatment). Mice delivery was assessed every hour until term (G19-G19.5). A mouse was considered as delivering prematurely if the first pup was delivered earlier than G18.5. Data was analyzed using Prism 7 (GraphPad Software, San Diego, CA, USA) with one-way ANOVA and Dunnett's test for multiple comparisons. Outliers were detected using Grubb's test. Results were treated as significant when p was <0.05 and expressed as mean+SEM.
From the results of the in vitro screens, a subset of six (3R,4S)-β-substituted-Agl^3 peptides (e.g., 2c, 2d, 2f, 2l, 2n, 2q) were selected for examination in vivo in a CD-1 mouse model of preterm birth (PTB), and a Sprague Dawley rat model of oxygen-induced retinopathy (OIR). In the PTB model, timed-pregnant CD-1 dams were pre-treated with peptides 1 or 2, or PBS vehicle, and then injected with LPS on day 16.5 of gestation (G16.5). A bacterial cell wall component that contains PAMPs, LPS is known to reliably induce labor via pro-inflammatory pathways implicating IL-1 (Hirsch and Wang 2005). The CD-1 mice have a gestation of 19.2 days (Goupil et al. 2010). Dams that delivered at least one pup before G18.5 were considered to have given birth prematurely. In the absence of peptide, LPS alone induced premature labor in ˜80% of treated mice (FIG. 6). Peptide 1 and triazoles 2 l and 2q, all reduced the PTB rate to ˜20%.

The test system of experiment [1] is IL-1β-induced NF-κB signaling in HEK-Blue IL-33/IL-1β cells. Nature of the experiment: NF-κB QUANTI-Blue assay. The format is cell-based. Particulars: peptide 10^−6 M, 30 min pretreatment, IL-1β 100 ng/ml. As to the method: FIG. 3 is a graph showing the effects of peptides 1 and 2 on IL-1β-induced NF-κB signaling in HEK-Blue cells as quantified in the QUANTI-blue assay. After pre-incubation with peptide or vehicle, HEK-Blue cells were stimulated with IL-1β for 24 h, and secreted alkaline phosphatase activity was spectroscopically detected as a reporter product from the transcription of the NF-κB gene. Data shown represents the average of 2 experiments (each with n=4 per treatment group): ****p<0.0001 compared to group treated only with IL-1β.
HEK-Blue IL-33/IL-1β cells (InvivoGen) were respectively pretreated with peptides 1 and 2 (10^−6 M), or Kineret (1.0 mg/mL) for 30 min, followed by treatment with a constant concentration of […] (100 ng/ml), and incubation at 37° C. for 4 h. Levels of secreted alkaline phosphatase in cell culture supernatant were determined using the QUANTI-Blue assay, according to the manufacturer's instructions (InvivoGen). Alkaline phosphatase activity was assessed by measuring the optical density (OD) at 620-655 nm with an EnVision Multilabel micro plate reader (PerkinElmer, Waltham, MA). Data are representative of 3 experiments (each with n=4 per treatment group).

The subject of the next experiment is human thymocyte. Conditions: in vitro (Jamieson et al. 2009); cited from earlier work.
A further experiment relates to Sprague Dawley rat pups. Nature of the experiment: Oxygen-induced retinopathy (OIR) model. The format is in vivo. Conditions: 2 mg/kg/day intraperitoneal twice daily, 80% oxygen P5 to P10; for extent of vaso-obliteration (percentage of total retinal area): vehicle ˜30%. The text has this:
Experiments in the oxygen-induced retinopathy rodent model were preformed according to the method described previously (Geranurimi et al. 2019), and summarized below.
Animals. Two-day-old (P2) Sprague Dawley rat pups and their mothers were ordered from Charles River (Raleigh, SC, USA) and acclimatized for 3 days in standard conditions. All procedures and protocols involving the use of the rats were approved by the Animal Care Committee of the research center of Hopital Maisonneuve-Rosemont and are in accordance with the Statement for the Use of Animals in Ophthalmic and Vision Research approved by the Association for Research in Vision and Ophthalmology, and guidelines established by the Canadian Council on Animal Care.
Oxygen-Induced Retinopathy in Sprague Dawley Rats. The 80% oxygen model of retinopathy was conducted as previously described (Geranurimi et al. 2019). Briefly, litters of P5 pups and their mothers were kept in a controlled 80% oxygen environment until P10. The pups were respectively injected intraperitoneally twice daily with PBS vehicle (20 μL per injection), peptide 1 or derivatives 2 (titrated to a daily dose of 2 mg/kg/day). Control litters were kept under normal air atmosphere and standard conditions. On P10, pups were euthanized by decapitation under 2% isoflurane anesthesia. Eyes were enucleated and fixed in 4% paraformaldehyde, then stored at 4° C. in phosphate-buffered saline (PBS) until further processing.
Retinal Flatmount and Immunohistochemistry. The fixed eyes were dissected, and the obtained retinas were incubated with antibodies and mounted onto slides as previously described in (Geranurimi et al. 2019). Briefly, the cornea and lens were removed from the eyes, and the retina gently removed from the underlying sclera-choroid-retinal pigmented epithelium (RPE) complex. Retinas were treated for 1h with blocking solution [1% bovine serum albumin (BSA), 1% normal goat serum, 0.1% Triton X-100 and 0.05% Tween-20 in PBS], and then incubated overnight with lectin and Iba-1 primary antibody, followed by Alexa-594-conjugated secondary antibody for 2 h. Retinas were then mounted onto microscope slides under coverslips with anti-fade mounting medium.
Microscopy. Retinal flatmounts were imaged using the Zeiss Axiolmager Z2 and the MosaiX feature of the AxioVision software as previously described (Geranurimi et al. 2019). Representative images after Iba-1 staining were taken using a laser scanning confocal microscope (Olympus IX81 with Fluoview FV1000 Scanhead) using the Fluoview Software at 30× magnification.
Quantification and Data Analysis. The FIJI software was used to quantify the area of vaso-obliteration in each retina, expressed as a percentage of the area of the whole retina. The number of Iba-1-positive cells was counted using the cell counter plug-in in the FIJI software, and the average of cell counts in 4 fields per retina was calculated. Data was analyzed using Prism 7 with one-way ANOVA and the Dunnett's test for multiple comparisons. Results were treated as significant when p was less than 0.05 and expressed as mean+SEM.

For experiment [2] the following is noted: Quiniou et al. 2008; cited from earlier work.
The subject of experiment [3] is IL-1β-induced phosphorylation of p38. Description: IL-1β-induced p38 phosphorylation, Western blot, RAW Blue cells. Particulars: peptide 10^−6 M 30 min, then IL-1β 15 min. It is filed as cell-based. As to the method:
(§1) FIGS. 5A-C are graphs showing the effects of peptides 1 and 2 on IL-1β-induced phosphorylation of p38 (FIG. 5A), JNK (FIG. 5B), and ROCK2 (FIG. 5C). Graphical representations of band density analysis of Western Blots are shown as fold activation compared to control. RAW Blue cells were pretreated with peptides 1 and 2 (10^−6 M), Kineret (1 mg/mL), or vehicle for 30 min and then stimulated with IL-1β for 15 min. Results shown are the average of 3 independent experiments: *p<0.05, ** p<0.01, ***p<0.001 compared to group treated only with IL-1β. Treatment groups that are not labeled with asterisks are statistically non-significant compared to group treated only with IL-1β.
(In general: Immunoblotting shows a protein as a band on a membrane.)

The subject of experiment [4] is IL-1β-induced phosphorylation of JNK. Nature of the experiment: IL-1β-induced JNK phosphorylation, Western blot, RAW Blue cells. It is filed as cell-based. Particulars: peptide 10^−6 M 30 min, then IL-1β 15 min. As to the method: as §1
The subject of experiment [5] is IL-1β-induced phosphorylation of ROCK2. Description: IL-1β-induced ROCK2 phosphorylation, Western blot, RAW Blue cells. It is filed as cell-based. Conditions: peptide 10^−6 M 30 min, then IL-1β 15 min. As to the method:
as §1

Consider “H-D-Arg-D-Tyr-D-Thr-D-Val-D-Glu-D-Leu-D-Ala-NH2 [compound 1, reference compound]”, for which the PTB rate with timed-pregnant CD-1 mice is listed as approximately 20%. In experiment [1], the “effect on IL-1β-induced NF-κB signaling (secreted alkaline phosphatase)” value is on record as “no effect”. For the same substance, in the experiment on human thymocyte, the “IL-1β-induced human thymocyte cell proliferation” value was “blocked”. Besides, in the experiment with Sprague Dawley rat pups, the “retinal microglial morphology/activation (Iba-1 staining)” value was “ramified and branched microglia”; the “extent of vaso-obliteration (percentage of total retinal area)” value is approximately 20%. For the same substance, the “in vivo effects in models of hyperthermia and inflammatory bowel disease” value in experiment [2] is on record as “robust in vivo effects”.
“[(3R,4S)-4-(4′-Phenyltriazolyl)Agl^3]-1 [2l]” came in with a PTB rate in the experiment on timed-pregnant CD-1 mice of approximately 20%. In experiment [3], the “IL-1β-induced p38 phosphorylation” value was “inhibiting”. Further, the “IL-1β-induced activation (phosphorylation) of JNK” value in experiment [4] is on record as “inhibited”. Besides, the “IL-1β-induced ROCK2 phosphorylation” value in experiment [5] is recorded as “inhibitory activity”. Further, in the experiment with Sprague Dawley rat pups, the “protective effect against vaso-obliteration” value is recorded as “tendencies to have a stronger protective effect than peptide 1”; the “retinal microglial morphology/activation (Iba-1 staining)” value was “ramified and branched microglia”; the “extent of vaso-obliteration (percentage of total retinal area)” value was approximately 20%.
